Test results published in PMC10085060 (Oncotarget, 2023).

Legend:
[1] = Day 10 of riluzole single agent treatment (100 mg BID), advanced melanoma patients, n = 9; cited from earlier work
[2] = Drug related adverse events (CTCAE version 4.0); assay type: in vivo, human
Protocol: Safety assessments including complete blood counts, serum chemistries, liver enzymes and toxicity evaluations were completed at baseline, day 1 and 15 of cycle 1, and then day 1 of every cycle thereafter. Toxicities were evaluated and graded using the CTEP NCI Common Terminology Criteria for Adverse Events (CTCAE), version 4.0.

[3] = tested on: RAF1; conditions: cited from earlier work
[4] = drug related AE, Grade ≥3, n=35
[5] = drug related AE, any grade, n=35

Nc1nc2ccc(OC(F)(F)F)cc2s1 [riluzole]
78.4 ng/mL: riluzole trough levels, geomean [1]
